Data from patent US20230399312A1, “SUBSTITUTED PYRIMIDINES AND METHODS OF USE” (THERAVANCE BIOPHARMA R&D IP, LLC, priority 2020, published 2023).

Key:
[1] = target: T1, recombinant human ALK5 (TGF-βR1) protein (Homo sapiens, UniProt P36897); assay: Biochemical ALK5 (TGF-βR1) assay to measure pKi (LANCE Ultra ULight kinase assay); conditions: apparent pKi, converted from pIC50 by Cheng-Prusoff
T1 construct: purchased Life Technologies PR9075A
T1 sequence (P36897 34-503): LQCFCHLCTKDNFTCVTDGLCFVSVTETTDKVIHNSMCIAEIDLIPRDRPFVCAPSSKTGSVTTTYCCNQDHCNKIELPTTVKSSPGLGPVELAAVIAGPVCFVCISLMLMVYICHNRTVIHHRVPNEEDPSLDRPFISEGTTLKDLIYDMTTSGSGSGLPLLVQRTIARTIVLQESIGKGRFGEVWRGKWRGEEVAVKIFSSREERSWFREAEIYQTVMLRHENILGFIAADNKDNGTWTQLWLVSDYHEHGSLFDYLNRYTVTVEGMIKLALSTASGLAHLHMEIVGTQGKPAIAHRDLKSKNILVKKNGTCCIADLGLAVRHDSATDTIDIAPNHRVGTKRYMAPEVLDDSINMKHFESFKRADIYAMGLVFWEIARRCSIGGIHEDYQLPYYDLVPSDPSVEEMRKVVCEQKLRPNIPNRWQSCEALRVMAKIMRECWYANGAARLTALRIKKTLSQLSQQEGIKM
Outline: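 Dose-response series of each compound were preincubated with the kinase for 60 minutes at room temperature. Phosphorylation proceeded for 60 minutes at 37 °C after ATP addition, was quenched with EDTA, and was detected with a europium anti-phospho-Thr1342 antibody by TR-FRET; pKi was calculated from pIC50.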

[2] = system: TGF-β-stimulated SMAD3 phosphorylation in BEAS-2B cells; assay: Cellular ALK5 potency assay, inhibition of TGF-β stimulated pSMAD3 formation in BEAS-2B cells; assay type: cell-based; conditions: Homo sapiens, pSMAD3, TGF-β 10 ng/mL, read-out: BEAS2B pIC50 (converted)
Outline: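 Read-out is AlphaLISA detection of phospho-SMAD3 in lysates of BEAS-2B human lung epithelial cells. Cells are exposed to compound for 1 hour, then to 10 ng/mL TGF-β (final) for 30 minutes. Values are pIC50 from concentration–response curves.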

Ki [1]	SMILES	IC50 [2]
0.398 to 3.16 nM	COC(=O)CCc1ccc(Nc2nccc(Nc3ccnc(-c4cccc(C)n4)n3)n2)cc1 [Compound 517, methyl 3-[4-[[4-[[2-(6-methyl-2-pyridyl)pyrimidin-4-yl]amino]pyrimidin-2-yl]amino]phenyl]propanoate]	200 to 1260 nM
0.0398 to 0.316 nM	Cc1cccc(-c2nccc(Nc3ccnc(Nc4ccc(N5CCNCC5CC(=O)O)cc4)n3)n2)n1 (stereo not drawn) [Compound 31, 2-[1-[4-[[4-[[2-(6-methyl-2-pyridyl)pyrimidin-4-yl]amino]pyrimidin-2-yl]amino]phenyl]piperazin-2-yl]acetic acid]	200 to 1260 nM
0.398 to 3.16 nM	Cc1cccc(-c2nccc(Nc3ccnc(Nc4ccc(N5CCNCC5)cn4)n3)n2)n1 [Compound 121, N4-(2-(6-methylpyridin-2-yl)pyrimidin-4-yl)-N2-(5-(piperazin-1-yl)pyridin-2-yl)pyrimidine-2,4-diamine]	25.1 to 158 nM
0.0398 to 0.316 nM	Cc1cccc(-c2nccc(Nc3ccnc(Nc4ccc(N5CCNCC5)c(CC(=O)O)c4)n3)n2)n1 [Compound 95, 2-[5-[[4-[[2-(6-methyl-2-pyridyl)pyrimidin-4-yl]amino]pyrimidin-2-yl]amino]-2-piperazin-1-yl-phenyl]acetic acid]	200 to 1260 nM
0.0398 to 0.316 nM	Cc1cccc(-c2nccc(Nc3ccnc(Nc4ccc(N5CCN(C6CNC6)CC5)cc4)n3)n2)n1 [Compound 473, N2-[4-[4-(azetidin-3-yl)piperazin-1-yl]phenyl]-N4-[2-(6-methyl-2-pyridyl)pyrimidin-4-yl]pyrimidine-2,4-diamine]	200 to 1260 nM
0.0398 to 0.316 nM	Cc1cccc(-c2nccc(Nc3ccnc(Nc4ccc(NC(=O)C5CCCNC5)cc4)n3)n2)n1 (stereo not drawn) [Compound 10, N-[4-[[4-[[2-(6-methyl-2-pyridyl)pyrimidin-4-yl]amino]pyrimidin-2-yl]amino]phenyl]piperidine-3-carboxamide]	≤ 20 nM
0.398 to 3.16 nM	COC(=O)Cc1ccc(Nc2nccc(Nc3ccnc(-c4cccc(C)n4)n3)n2)cc1 [Compound 442, methyl 2-[4-[[4-[[2-(6-methyl-2-pyridyl)pyrimidin-4-yl]amino]pyrimidin-2-yl]amino]phenyl]acetate]	25.1 to 158 nM
0.0398 to 0.316 nM	Cc1cccc(-c2nccc(Nc3ccnc(Nc4ccc(CN5CC(N(C)C)C5)cc4)n3)n2)n1 [Compound 501, N2-[4-[[3-(dimethylamino)azetidin-1-yl]methyl]phenyl]-N4-[2-(6-methyl-2-pyridyl)pyrimidin-4-yl]pyrimidine-2,4-diamine]	25.1 to 158 nM
0.398 to 3.16 nM	Cc1cccc(-c2nccc(Nc3ccnc(Nc4csc(N)c4)n3)n2)n1 [Compound 500, N2-(5-amino-3-thienyl)-N4-[2-(6-methyl-2-pyridyl)pyrimidin-4-yl]pyrimidine-2,4-diamine]	25.1 to 158 nM
0.0398 to 0.316 nM	Cc1cccc(-c2nccc(Nc3ccnc(Nc4ccc(NCCN)cc4)n3)n2)n1 [Compound 259, N2-[4-(2-aminoethylamino)phenyl]-N4-[2-(6-methyl-2-pyridyl)pyrimidin-4-yl]pyrimidine-2,4-diamine]	25.1 to 158 nM
0.0398 to 0.316 nM	Cc1cccc(-c2nccc(Nc3ccnc(Nc4cncc(CN5CC(C(=O)O[C@@H]6CCNC6)C5)c4)n3)n2)n1 [Compound 642, [(3R)-pyrrolidin-3-yl] 1-[[5-[[4-[[2-(6-methyl-2-pyridyl)pyrimidin-4-yl]amino]pyrimidin-2-yl]amino]-3-pyridyl]methyl]azetidine-3-carboxylate]	25.1 to 158 nM

SMILES	Ki [1]	IC50 [2]
Cc1cccc(-c2nccc(Nc3ccnc(Nc4ccc(C5=CCNCC5)cc4)n3)n2)n1 [Compound 193, N4-[2-(6-methyl-2-pyridyl)pyrimidin-4-yl]-N2-[4-(1,2,3,6-tetrahydropyridin-4-yl)phenyl]pyrimidine-2,4-diamine]	0.0398 to 0.316 nM	≤ 20 nM
